“And” between values parts separate entries of the source, which are not always exact repeats. Equal entries are not always repeated. Where two headings read alike, the source gives them in different places.
Assays:
[1] = target: MCT1 (Rattus norvegicus (Rat), UniProt P53987); experiment: Test A. MCT1 inhibition via lactate uptake in rat brain endothelial (RBE4) cells; type: cell-based; conditions: 14C-lactate uptake
Protocol: Test A. MCT1 Inhibition Via Lactate Uptake Rat Brain Endothelial Cells
The entire lactate uptake studies for the inhibition of MCT1 were carried out on RBE4 (Rat Brain Endothelial 4) cells. The expression of MCT1 on these cells was confirmed by Western Blotting. The cells were plated approximately 20-24 hours before the experiment, the number of cells being approximately 10^5 cells per well. The test compounds were dissolved in DMSO and diluted 1000 times using a solution of HEPES buffer (pH 7.43) which consists of 3 μM ^14C-Lactate and 2 μM L-Lactate. The cells were washed twice with 500 μL of HEPES buffer and the cells were allowed to equilibrate for 15 minutes at 37° C. The HEPES buffer was removed and 250 μL of the test sample was added in triplicates. This was repeated for all the compounds, including the controls (CHC and DMSO). After 15 minutes, the compounds were removed from the well and 500 μL of ice-cold stop buffer (0.1 mM CHC solution in HEPES buffer) was added. The plate was kept on ice. Now, the HEPES buffer in one triplicate was removed and DMSO solution was added and immediately removed and ice-cold stop buffer was added. This was considered as “Zero”. One triplicate was left blank, which was used for protein assay after lysing the cells. The cells were washed twice with ice-cold HEPES buffer and then 250 μL of 0.1M NaOH in 5% Triton-X solution was added and the plate is kept on a shaker for 40 minutes to lyse the cells. 150 μL of the lysed cells was added into 4 mL of the scintillation fluid in a scintillation vial and scintillation count was obtained in disintegrations per minute (dpm). The percent inhibition values were calculated by taking DMSO as minimum. Concentration study (usually 9-12 dilutions) was done to determine the IC50 of each compound.

[2] = Toxicity study in healthy ICR mice (body weight, WBC, RBC); type: in vivo; conditions: for RBC ± SEM / WBC ± SEM: end of day 22
Protocol: 60 ICR mice weighing ˜27 grams were randomly assigned into 5 groups (12 animals, 6 male and 6 female per group), one group being the control group without any drug administration (food only). The drugs were administered twice daily by P.O. or I.P. Group 1 and 3 were administered orally with 50 mg/Kg of Compound 20 and 18 mg/Kg of Compound 14 respectively. Group 2 and 4 mice were injected intraperitoneally with 6.67 mg/Kg of Compound 20 and 5.3 mg/Kg of Compound 14 (dissolved in water) respectively. The body weights of mice were recorded daily for 22 days. At the end of the 22nd day, 3 mice were randomly selected from each group and their blood samples were collected for detailed analysis of white blood cell (WBC) and red blood cell (RBC) counts. The mice were then euthanized with CO2.

[3] = Pharmacokinetic study of Compound 20 in ICR mice; type: in vivo; conditions: for CLz/F / t1/2Z / concentration at 0 h: plasma; for CLz/F / t1/2Z: mean; for concentration at 0 h: male, ICR, mouse, ip, 100 mg/kg
Protocol: 60 male ICR mice were split into two groups of 30. In each group the mice were prescribed Compound 20 at a dosage of 100 mg/kg. This dose was administered orally in group 1 and intraperitoneally in group 2. Each group of 30 mice was subdivided into groups of 3 mice. Blood samples were taken through orbital sinus method at 0, 0.083, 0.25, 0.5, 1, 2, 4, 6, 8 and 24 hours after administering Compound 20 and taken into tubes with anticoagulant at room temperature at least 30 minutes prior to centrifugation, then centrifuged at 10000 rpm for 5 minutes at 4° C. to separate plasma from the blood samples. Following centrifugation, the resulting serum was transferred to clean tubes and stored frozen at −80° C. Immediately following the blood samples, the brain tissue samples of mice were removed and stored frozen at −80° C.
A 20% brain homogenate was prepared by weighing brain tissue sample and adding, corresponding volume of saline into the manual homogenator. The dilution factor was 5 (w/v=1 g: 4 mL). The brain tissue sample was grinded slowly and repeatedly until it has become homogenous.
Plasma and Brain samples were centrifuged at 15777×g for 5 minutes, and 180 ul of supernatant was placed in a 96-well assay plate. To each well, 200 ul of a 50% ACN/H2O was added and the plates were shake-mixed for 3 minutes. 5 ul aliquots of each well were then analyzed using LC-MS/MS.
The standard non-compartmental model was used to generate the pharmacokinetic parameters: Cmax, Tmax, t1/2, AUC0->last, AUC0->inf, CL/F, and Vz/F. The maximum plasma concentration, Cmax, and its corresponding time, Tmax were directly recorded. Elimination rate constant kel was determined by linear regression of the terminal points of the semi-log plot of concentration against time. Elimination half-life was calculated by the formula; t12=0.693/kel. The Area Under the curve value from time 0 to 24 hours was defined as AUCt->last and calculated using the linear trapezoidal rule.

MCT1, sequence (P53987 whole entry): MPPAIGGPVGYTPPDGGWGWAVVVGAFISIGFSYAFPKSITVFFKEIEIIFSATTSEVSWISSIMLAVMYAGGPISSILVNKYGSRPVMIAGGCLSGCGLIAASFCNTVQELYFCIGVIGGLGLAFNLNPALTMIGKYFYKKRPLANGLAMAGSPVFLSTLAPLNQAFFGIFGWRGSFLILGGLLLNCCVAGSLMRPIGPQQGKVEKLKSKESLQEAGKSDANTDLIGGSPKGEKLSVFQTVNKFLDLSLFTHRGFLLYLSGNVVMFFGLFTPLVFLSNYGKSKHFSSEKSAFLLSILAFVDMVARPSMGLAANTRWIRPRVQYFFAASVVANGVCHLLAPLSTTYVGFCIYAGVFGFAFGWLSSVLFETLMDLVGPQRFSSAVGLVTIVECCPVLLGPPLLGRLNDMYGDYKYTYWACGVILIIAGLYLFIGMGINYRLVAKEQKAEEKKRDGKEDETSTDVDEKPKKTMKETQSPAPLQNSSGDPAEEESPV
MCT1, sequence (P26453 141-388 partner): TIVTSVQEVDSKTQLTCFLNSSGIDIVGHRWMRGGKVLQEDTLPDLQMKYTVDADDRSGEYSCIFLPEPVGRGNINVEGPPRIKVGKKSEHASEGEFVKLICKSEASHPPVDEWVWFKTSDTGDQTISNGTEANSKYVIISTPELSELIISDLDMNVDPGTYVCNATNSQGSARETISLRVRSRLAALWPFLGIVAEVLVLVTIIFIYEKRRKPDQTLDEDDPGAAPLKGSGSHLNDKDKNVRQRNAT

In the case of `COc1cc(N(c2ccccc2)c2ccccc2)ccc1/C=C(\C#N)C(=O)O` [Compound 20], the IC50 [1] is reported as 0.008 µM, the “Weight in grams (Day 0)” value ([2]; 6.67 mg/kg i.p. twice daily) is reported as 26.98 grams and the “Weight in grams (Day 22)” value ([2]; 6.67 mg/kg i.p. twice daily) is reported as 33.54 grams. The “RBC ± SEM” value ([2]; 6.67 mg/kg i.p. twice daily) was 1.82 ± 0.05 10^13/L, the “WBC ± SEM” value ([2]; 6.67 mg/kg i.p. twice daily) was 3.83 ± 0.38 10^10/L and the “Weight in grams (Day 0)” value ([2]; 50 mg/kg p.o. twice daily) was 26.91 grams. For the same compound, the “Weight in grams (Day 22)” value ([2]; 50 mg/kg p.o. twice daily) was 32.61 grams, the “RBC ± SEM” value ([2]; 50 mg/kg p.o. twice daily) was 1.75 ± 0.06 10^13/L and the “WBC ± SEM” value ([2]; 50 mg/kg p.o. twice daily) was 4.10 ± 0.3 10^10/L. The “Plasma Concentration, individual animals (1#, 2#, 3#)” value (“Plasma Concentration” for short) ([3]; 100 mg/kg i.p., 0 h) was 0 ng/mL, the “Plasma Concentration” value ([3]; 100 mg/kg i.p., 0.083 h) was 18800 ng/mL and 33300 ng/mL and 40400 ng/mL and the “Plasma Concentration” value ([3]; 100 mg/kg i.p., 0.25 h) was 78300 ng/mL and 29400 ng/mL and 60100 ng/mL. For the same compound, the “Plasma Concentration” value ([3]; 100 mg/kg i.p., 0.5 h) was 30400 ng/mL and 30200 ng/mL, the “Plasma Concentration” value ([3]; 100 mg/kg i.p., 1 h) was 45600 ng/mL and 26900 ng/mL and the “Plasma Concentration” value ([3]; 100 mg/kg i.p., 2 h) was 27800 ng/mL and 38900 ng/mL. The “Plasma Concentration” value ([3]; 100 mg/kg i.p., 4 h) was 24000 ng/mL and 26400 ng/mL, the “Plasma Concentration” value ([3]; 100 mg/kg i.p., 6 h) was 14200 ng/mL and 3980 ng/mL and 5360 ng/mL and the “Plasma Concentration” value ([3]; 100 mg/kg i.p., 8 h) was 3160 ng/mL and 2590 ng/mL. The “Plasma Concentration” value ([3]; 100 mg/kg i.p., 24 h) was 41.8 ng/mL and 249 ng/mL and 70.9 ng/mL, the CLz/F ([3]; 100 mg/kg i.p.) was 0.499 L/h/kg and the t1/2Z ([3]; 100 mg/kg i.p.) was 3.19 h. For the same compound, the “pharmacokinetics parameters (overall assessment)” value ([3]; 100 mg/kg p.o. and i.p.) was “satisfactory”, the “Plasma Concentration” value ([3]; 100 mg/kg p.o., 0 h) was 0 ng/mL and the “Plasma Concentration” value ([3]; 100 mg/kg p.o., 0.083 h) was 4050 ng/mL and 4040 ng/mL. For the same compound, the “Plasma Concentration” value ([3]; 100 mg/kg p.o., 0.25 h) was 11300 ng/mL and 6400 ng/mL, the “Plasma Concentration” value ([3]; 100 mg/kg p.o., 0.5 h) was 19100 ng/mL and 20700 ng/mL and 6580 ng/mL and the “Plasma Concentration” value ([3]; 100 mg/kg p.o., 1 h) was 3610 ng/mL and 4830 ng/mL and 12700 ng/mL. The “Plasma Concentration” value ([3]; 100 mg/kg p.o., 2 h) was 3270 ng/mL and 1380 ng/mL and 4790 ng/mL, the “Plasma Concentration” value ([3]; 100 mg/kg p.o., 4 h) was 2880 ng/mL and 5160 ng/mL and 1240 ng/mL and the “Plasma Concentration” value ([3]; 100 mg/kg p.o., 6 h) was 1470 ng/mL and 2230 ng/mL and 3720 ng/mL. For the same compound, the “Plasma Concentration” value ([3]; 100 mg/kg p.o., 8 h) was 5780 ng/mL and 2370 ng/mL and 3880 ng/mL, the “Plasma Concentration” value ([3]; 100 mg/kg p.o., 24 h) was 111 ng/mL and 19.3 ng/mL and 12.8 ng/mL and the CLz/F ([3]; 100 mg/kg p.o.) was 1.56 L/h/kg. The t1/2Z ([3]; 100 mg/kg p.o.) was 3.03 h, the concentration at 0 h ([3]; 100 mg/kg i.p., 0 h, n = 3, read-out: Plasma Concentration, Mean) was 0 ng/mL and the concentration at 0 h ([3]; 100 mg/kg i.p., 0 h, read-out: Plasma Concentration, individual animals (1#, 2#, 3#)) was 0 ng/mL.

Reference: patent US9296728B2, “Therapeutic compounds” (Regents of the University of Minnesota, priority 2012, dated 2016)
